Assay results from patent US20130210907A1, “METHOD FOR PREVENTING OR TREATING ENTEROCHROMAFFIN CELL HYPERPLASIA-RELATED DISEASES BY QUERCETIN ADMINISTRATION” (HONG KONG BAPTIST UNIVERSITY, priority 2012, published 2013).

Assays:
PI-IBS rats = test: Electron microscopy of EC cell secretory granules after CRD; format: in vivo, rat; conditions: median dose
Experimental: For electron microscopy evaluation, the colon tissues are collected from the rats treated with AWR test so as to investigate the feature of mechanical stimulus-induced 5-HT release. Colon segment is fixed for 24 h at 4° C. in fixative containing 4% paraformaldehyde and 0.2% picric acid in 0.1M PB, then washed and embedded in gelatin. Thin sections are cut and picked up on 200-mesh grids. The sections are stained with uranyl acetate and lead citrate. Examination and photography of sections are carried out using Philips CM 10 transmission electron microscope (Philips Scientifics, Netherlands). At the ultra-structural level, EC cell are distinguished from other enteroendocrine cells by the pleomorphic nature of their secretory granules. The EC cells in which there are many clear secretory granules without cores and granules with eccentric cores are considered as the activated one with excessive 5-HT release.

normal rats = test: Colonic EC cell density in normal rats; format: in vivo, rat; conditions: 10 mg/kg i.g., 14 days
Experimental: Tissue sections (5-μm thick) are deparaffinized and rehydrated for silver staining. Briefly, sections are incubated with 5% ammoniacal silver solution for 4 h at room temperature, then 2 h in 56° C. and subsequently 12 h at room temperature in a dark humidified chamber. After rinsing with water, 5% sodium hyposulfite is added and the tissue sections are incubated for 5 min at room temperature. The brown to black silver precipitate in the cytoplasm of EC cells represents as a positive reaction. A researcher blinded to treatment counted 5 random fields at 200× magnifications for each section, and the number of EC cells per mm^2 of mucosa is quantified using Image J NIH software.
To identify whether the effects of Quercerin in PI-IBS rats are specific, pain threshold pressure, colonic EC cell number and 5-HT content are further evaluated in normal rats treated with Quercetin. Briefly, Quercetin at the dose of 10 mg/kg is administered to normal rats orally for 14 days. After the final drug administration, pain threshold pressure, colonic EC cell density and 5-HT content are evaluated and the methods used here are as same as that shown in above experiments.

QGP-1 cells [1] = test: Cell viability (MTT assay); format: cell-based; conditions: Homo sapiens
Experimental: To investigate the underlying mechanisms of Quercein on EC cell hyperplasia, a EC cell model, QGP-1 cell line is used as EC cell model. Human pancreatic carcinoma QGP-1 cells (JCRB0183, HSRRB, Japan) are cultured in RPMI 1640 supplemented with 10% fetal bovine serum, 100 IU/ml penicillin, and 100 μg/ml streptomycin in a humidified atmosphere of 95% air and 5% CO2 at 37° C. Cells are passaged using 0.025% trypsin and 0.01% EDTA. Cells are trypsinized and seeded in 96-well culture dishes at a density of 5,000-8,000 cells/well and cultured for 24 h or 48 h in the presence of Quercetin (0-100 μM, 0.01% DMSO).
3-(4,5-dimethylthiazol-2yl-)-2,5-diphenyl tetrazolium bromide (MTT) is used to evaluate cell viability. In this assay, cells are seeded in 96-well dishes and cultured for […] in the presence of Quercetin. Subsequently, the culture medium is replaced with 100 μl/well fresh medium containing 0.5 mg/ml MTT, and the cells are further incubated for 4 h at 37° C. The reaction is stopped by adding 100 μl/well 10% SDS in 0.1 M HCl, the absorbance of the plates is read at 570 nm The percent of cell survival is calculated by comparing the average absorbance of the Quercetin treated cells with the corresponding absorbance of the DMSO treated cells. All doses are tested in triplicates and repeated for at least three times.

QGP-1 cells [2] = test: Cell cycle analysis by flow cytometry (propidium iodide); format: cell-based, human; conditions: 24 h
Experimental: QGP-1 cells are seeded at a density of 10×10^4 cells/ml and pre-incubated overnight. After incubation with or without Quercetin (0-100 μM) for 24 h, cells are harvested by trypsinization and fixed in 70% ethanol at 4° C. overnight. The cells are centrifuged to remove ethanol and washed twice using ice-cold PBS. The cell pallets are resuspended in 500 n1 propidium iodide solution (0.1% Triton X-100, 50 μg/ml propidium iodide in PBS) containing 50 μg/ml RNase and incubated at 37° C. for 30 min and protected from the light. The DNA content of 10,000 cells is detected by BD FASCanto Flow Cytometry and analyzed using […] software (Becton Dickinson, Heidelberg, Germany). The data are representative of those obtained in at least three experiments.

p-Cdc-2 = test: Western blot of p-Cdc-2 in QGP-1 cells; format: cell-based, human; conditions: QGP-1, 50-100 μM, 24 h
Experimental: (§1) After drug treatment, the cells are lysed and centrifuged to collect the protein extract After determination of protein content, the samples protein are denatured at 100° C. for 5 min Proteins are separated by 10-12% SDS-PAGE and transferred to PVDF membranes (Bio-Rad, CA). After blocking with 5% nonfat milk for 1 h at room temperature, the membranes are incubated overnight at 4° C. with primary antibodies (mouse anti-cyclin BE 1:500, Abcam; goat anti-p-Cdc2:1:500, Santa Cruz; mouse anti-p21: 1:500, BD Bioscience). After washing three times in TBST, the membranes where incubated with the appropriate secondary antibodies (1:2000, Invitrogen) for 1 h at room temperature. The immunoreaction is detected using ECL Western blotting kit (ECL, Amersham, UK). Bands are visualized on Biomax X-ray film, and optical density of each band is semi-quantified by software (Image J.NIH). In order to adjust for any variations in loading, all detected protein bands are normalized to β-actin levels.

p21 = test: Western blot of p21 in QGP-1 cells; format: cell-based, human; conditions: QGP-1, 50-100 nM (so in the source), 24 h
Experimental: as §1

O=c1c(O)c(-c2ccc(O)c(O)c2)oc2cc(O)cc(O)c12 [Quercetin, 2-(3,4-dihydroxyphenyl)-3,5,7-trihydroxy-4H-chromen-4-one]
Secretory granules of EC cells compared to PI-IBS rats (electron micrographs) (PI-IBS rats): became denser | EC cell density (normal rats): 91 ± 10 Number/mm^2 | cytotoxicity at 100 µM (QGP-1 cells [1]; QGP-1, 24 h, at about 100 μM, read-out: Reduction of cell viability in comparison with the control): ~50% | IC50 (QGP-1 cells [1]; QGP-1, 48 h incubation): ~50 µM | Cells in G0/G1 phase (QGP-1 cells [2]; QGP-1, 25 μM): 56.0 ± 3.5% | Cells in G2/M phase (QGP-1 cells [2]; QGP-1, 25 μM): 21.8 ± 3.2% | Cells in S phase (QGP-1 cells [2]; QGP-1, 25 μM): 22.3 ± 0.3% | Cells in G0/G1 phase (QGP-1 cells [2]; QGP-1, 50 μM): 47.8 ± 4.0 % | Cells in G2/M phase (QGP-1 cells [2]; QGP-1, 50 μM): 20.2 ± 4.29% | Cells in S phase (QGP-1 cells [2]; QGP-1, 50 μM): 32.0 ± 0.4 % | Cells in G0/G1 phase (QGP-1 cells [2]; QGP-1, 100 μM): 8.4 ± 1.7 % | Cells in G2/M phase (QGP-1 cells [2]; QGP-1, 100 μM): 47.7 ± 2.2 % | Cells in S phase (QGP-1 cells [2]; QGP-1, 100 μM): 43.9 ± 0.7 % | Protein level of p-Cdc-2 (p-Cdc-2): significantly decrease | Protein level of p21 (p21): significantly increased
